In patent US10010545B1, “Antibiotic compositions and methods of use” (University of South Florida, priority 2013, dated 2018):
Values after ≈ are worked out from the molar mass of the structure shown.

Assays:
Enterococcus faecium = test: Growth testing against ESKAPE pathogens: Enterococcus faecium; assay type: cell-based; set-up: key: Growth; X: No Growth
Protocol: (§1) Six analogs (FIG. 2) of the ciprofloxacin-N thiolated β-lactam were successfully synthesized. All these compounds were then tested against ESKAPE pathogens for bioactivity. The ESKAPE pathogens are a collection of six deadly superbugs, Enterococcus faecium, Staphylococcus aureus, Klebsiella pneumoniae, Acinetobacter baumannii, Pseudomonas aeruginosa, and Enterobacter species. […] G denotes growth and X denotes no growth in the tables.

Staphylococcus aureus = test: Growth testing against ESKAPE pathogens: Staphylococcus aureus; assay type: cell-based; set-up: key to Activity against Staphylococcus aureus (growth observed): Growth; X: No Growth; settings: for MIC: against S. aureus
Protocol: as §1

Klebesiella pneumonia = test: Growth testing against ESKAPE pathogens: Klebesiella pneumonia; assay type: cell-based, Klebsiella pneumoniae; set-up: key: Growth; X: No Growth
Protocol: as §1

Acinetobacter baumannii = test: Growth testing against ESKAPE pathogens: Acinetobacter baumannii; assay type: cell-based; set-up: key: Growth; X: No Growth
Protocol: as §1

Pseudomonas aeruginosa = test: Growth testing against ESKAPE pathogens: Pseudomonas aeruginosa; assay type: cell-based; set-up: key: Growth; X: No Growth
Protocol: as §1

MRSA = test: Growth inhibition against MRSA; assay type: cell-based; settings: at 1 μg/ml against MRSA
Protocol: as §1
Synthesis of dual drugs for the antibacterial purposes is a huge arena of research and for the first time this was done with the N-thiolated β-lactams. Though both N-acyl ciprofloxacins and N-thiolated β-lactams have been independently studied, the attempt to combine them via a cleavable covalent bond was never done. This study has elaborated on the synthesis of six such analogs.

CCC(C)SN1C(=O)C(OC(=O)c2cn(C3CC3)c3cc(N4CCN(C(C)=O)CC4)c(F)cc3c2=O)C1c1ccccc1Cl (centres unmarked) [Lactam 125]
Activity against Enterococcus faecium (growth observed) (Enterococcus faecium; 1 μg/ml): G
Activity against Enterococcus faecium (growth observed) (Enterococcus faecium; 2 μg/ml): G
Activity against Enterococcus faecium (growth observed) (Enterococcus faecium; 3 μg/ml): G
Activity against Enterococcus faecium (growth observed) (Enterococcus faecium; 4 μg/ml): G
Activity against Enterococcus faecium (growth observed) (Enterococcus faecium; 5 μg/ml): G
Activity against Enterococcus faecium (growth observed) (Enterococcus faecium; 6 μg/ml): G
Activity against Enterococcus faecium (growth observed) (Enterococcus faecium; 7 μg/ml): G
Activity against Enterococcus faecium (growth observed) (Enterococcus faecium; 8 μg/ml): G
Activity against Enterococcus faecium (growth observed) (Enterococcus faecium; 9 μg/ml): G
Activity against Enterococcus faecium (growth observed) (Enterococcus faecium; 10 μg/ml): G
Activity against Enterococcus faecium (growth observed) (Enterococcus faecium; 25 μg/ml): G
Activity against Staphylococcus aureus (growth observed) (Staphylococcus aureus; 1 μg/ml): X
Activity against Staphylococcus aureus (growth observed) (Staphylococcus aureus; 2 μg/ml): X
Activity against Staphylococcus aureus (growth observed) (Staphylococcus aureus; 3 μg/ml): X
Activity against Staphylococcus aureus (growth observed) (Staphylococcus aureus; 4 μg/ml): X
Activity against Staphylococcus aureus (growth observed) (Staphylococcus aureus; 5 μg/ml): X
Activity against Staphylococcus aureus (growth observed) (Staphylococcus aureus; 6 μg/ml): X
Activity against Staphylococcus aureus (growth observed) (Staphylococcus aureus; 7 μg/ml): X
Activity against Staphylococcus aureus (growth observed) (Staphylococcus aureus; 8 μg/ml): X
Activity against Staphylococcus aureus (growth observed) (Staphylococcus aureus; 9 μg/ml): X
Activity against Staphylococcus aureus (growth observed) (Staphylococcus aureus; 10 μg/ml): X
Activity against Staphylococcus aureus (growth observed) (Staphylococcus aureus; 25 μg/ml): X
MIC (Staphylococcus aureus): 1 µg/mL (≈ 1.56 µM)
Activity against Klebesiella pneumonia (growth observed) (Klebesiella pneumonia; 1 μg/ml): G
Activity against Klebesiella pneumonia (growth observed) (Klebesiella pneumonia; 2 μg/ml): G
Activity against Klebesiella pneumonia (growth observed) (Klebesiella pneumonia; 3 μg/ml): G
Activity against Klebesiella pneumonia (growth observed) (Klebesiella pneumonia; 4 μg/ml): G
Activity against Klebesiella pneumonia (growth observed) (Klebesiella pneumonia; 5 μg/ml): G
Activity against Klebesiella pneumonia (growth observed) (Klebesiella pneumonia; 6 μg/ml): G
Activity against Klebesiella pneumonia (growth observed) (Klebesiella pneumonia; 7 μg/ml): G
Activity against Klebesiella pneumonia (growth observed) (Klebesiella pneumonia; 8 μg/ml): G
Activity against Klebesiella pneumonia (growth observed) (Klebesiella pneumonia; 9 μg/ml): G
Activity against Klebesiella pneumonia (growth observed) (Klebesiella pneumonia; 10 μg/ml): G
Activity against Klebesiella pneumonia (growth observed) (Klebesiella pneumonia; 25 μg/ml): G
Activity against Acinetobacter baumannii (growth observed) (Acinetobacter baumannii; 1 μg/ml): G
Activity against Acinetobacter baumannii (growth observed) (Acinetobacter baumannii; 2 μg/ml): G
Activity against Acinetobacter baumannii (growth observed) (Acinetobacter baumannii; 3 μg/ml): G
Activity against Acinetobacter baumannii (growth observed) (Acinetobacter baumannii; 4 μg/ml): G
Activity against Acinetobacter baumannii (growth observed) (Acinetobacter baumannii; 5 μg/ml): G
Activity against Acinetobacter baumannii (growth observed) (Acinetobacter baumannii; 6 μg/ml): G
Activity against Acinetobacter baumannii (growth observed) (Acinetobacter baumannii; 7 μg/ml): G
Activity against Acinetobacter baumannii (growth observed) (Acinetobacter baumannii; 8 μg/ml): G
Activity against Acinetobacter baumannii (growth observed) (Acinetobacter baumannii; 9 μg/ml): G
Activity against Acinetobacter baumannii (growth observed) (Acinetobacter baumannii; 10 μg/ml): G
Activity against Acinetobacter baumannii (growth observed) (Acinetobacter baumannii; 25 μg/ml): G
Activity against Pseudomonas aeruginosa (growth observed) (Pseudomonas aeruginosa; 1 μg/ml): G
Activity against Pseudomonas aeruginosa (growth observed) (Pseudomonas aeruginosa; 2 μg/ml): G
Activity against Pseudomonas aeruginosa (growth observed) (Pseudomonas aeruginosa; 3 μg/ml): G
Activity against Pseudomonas aeruginosa (growth observed) (Pseudomonas aeruginosa; 4 μg/ml): G
Activity against Pseudomonas aeruginosa (growth observed) (Pseudomonas aeruginosa; 5 μg/ml): G
Activity against Pseudomonas aeruginosa (growth observed) (Pseudomonas aeruginosa; 6 μg/ml): G
Activity against Pseudomonas aeruginosa (growth observed) (Pseudomonas aeruginosa; 7 μg/ml): G
Activity against Pseudomonas aeruginosa (growth observed) (Pseudomonas aeruginosa; 8 μg/ml): G
Activity against Pseudomonas aeruginosa (growth observed) (Pseudomonas aeruginosa; 9 μg/ml): G
Activity against Pseudomonas aeruginosa (growth observed) (Pseudomonas aeruginosa; 10 μg/ml): G
Activity against Pseudomonas aeruginosa (growth observed) (Pseudomonas aeruginosa; 25 μg/ml): G
growth inhibition (MRSA): complete growth inhibition

CCCCCCC(=O)N1CCN(c2cc3c(cc2F)c(=O)c(C(=O)OC2C(=O)N(SC(C)CC)C2c2ccccc2Cl)cn3C2CC2)CC1 (centres unmarked) [Lactam 130]
Activity against Enterococcus faecium (growth observed) (Enterococcus faecium; 1 μg/ml): G
Activity against Enterococcus faecium (growth observed) (Enterococcus faecium; 2 μg/ml): G
Activity against Enterococcus faecium (growth observed) (Enterococcus faecium; 3 μg/ml): G
Activity against Enterococcus faecium (growth observed) (Enterococcus faecium; 4 μg/ml): G
Activity against Enterococcus faecium (growth observed) (Enterococcus faecium; 5 μg/ml): G
Activity against Enterococcus faecium (growth observed) (Enterococcus faecium; 6 μg/ml): G
Activity against Enterococcus faecium (growth observed) (Enterococcus faecium; 7 μg/ml): G
Activity against Enterococcus faecium (growth observed) (Enterococcus faecium; 8 μg/ml): G
Activity against Enterococcus faecium (growth observed) (Enterococcus faecium; 9 μg/ml): G
Activity against Enterococcus faecium (growth observed) (Enterococcus faecium; 10 μg/ml): G
Activity against Enterococcus faecium (growth observed) (Enterococcus faecium; 25 μg/ml): G
Activity against Staphylococcus aureus (growth observed) (Staphylococcus aureus; 1 μg/ml): G
Activity against Staphylococcus aureus (growth observed) (Staphylococcus aureus; 2 μg/ml): G
Activity against Staphylococcus aureus (growth observed) (Staphylococcus aureus; 3 μg/ml): G
Activity against Staphylococcus aureus (growth observed) (Staphylococcus aureus; 4 μg/ml): G
Activity against Staphylococcus aureus (growth observed) (Staphylococcus aureus; 5 μg/ml): G
Activity against Staphylococcus aureus (growth observed) (Staphylococcus aureus; 6 μg/ml): G
Activity against Staphylococcus aureus (growth observed) (Staphylococcus aureus; 7 μg/ml): G
Activity against Staphylococcus aureus (growth observed) (Staphylococcus aureus; 8 μg/ml): G
Activity against Staphylococcus aureus (growth observed) (Staphylococcus aureus; 9 μg/ml): G
Activity against Staphylococcus aureus (growth observed) (Staphylococcus aureus; 10 μg/ml): X
Activity against Staphylococcus aureus (growth observed) (Staphylococcus aureus; 25 μg/ml): X
MIC (Staphylococcus aureus): 10 µg/mL (≈ 14.1 µM)
Activity against Klebesiella pneumonia (growth observed) (Klebesiella pneumonia; 1 μg/ml): G
Activity against Klebesiella pneumonia (growth observed) (Klebesiella pneumonia; 2 μg/ml): G
Activity against Klebesiella pneumonia (growth observed) (Klebesiella pneumonia; 3 μg/ml): G
Activity against Klebesiella pneumonia (growth observed) (Klebesiella pneumonia; 4 μg/ml): G
Activity against Klebesiella pneumonia (growth observed) (Klebesiella pneumonia; 5 μg/ml): G
Activity against Klebesiella pneumonia (growth observed) (Klebesiella pneumonia; 6 μg/ml): G
Activity against Klebesiella pneumonia (growth observed) (Klebesiella pneumonia; 7 μg/ml): G
Activity against Klebesiella pneumonia (growth observed) (Klebesiella pneumonia; 8 μg/ml): G
Activity against Klebesiella pneumonia (growth observed) (Klebesiella pneumonia; 9 μg/ml): G
Activity against Klebesiella pneumonia (growth observed) (Klebesiella pneumonia; 10 μg/ml): G
Activity against Klebesiella pneumonia (growth observed) (Klebesiella pneumonia; 25 μg/ml): G
Activity against Acinetobacter baumannii (growth observed) (Acinetobacter baumannii; 1 μg/ml): G
Activity against Acinetobacter baumannii (growth observed) (Acinetobacter baumannii; 2 μg/ml): G
Activity against Acinetobacter baumannii (growth observed) (Acinetobacter baumannii; 3 μg/ml): G
Activity against Acinetobacter baumannii (growth observed) (Acinetobacter baumannii; 4 μg/ml): G
Activity against Acinetobacter baumannii (growth observed) (Acinetobacter baumannii; 5 μg/ml): G
Activity against Acinetobacter baumannii (growth observed) (Acinetobacter baumannii; 6 μg/ml): G
Activity against Acinetobacter baumannii (growth observed) (Acinetobacter baumannii; 7 μg/ml): G
Activity against Acinetobacter baumannii (growth observed) (Acinetobacter baumannii; 8 μg/ml): G
Activity against Acinetobacter baumannii (growth observed) (Acinetobacter baumannii; 9 μg/ml): G
Activity against Acinetobacter baumannii (growth observed) (Acinetobacter baumannii; 10 μg/ml): G
Activity against Acinetobacter baumannii (growth observed) (Acinetobacter baumannii; 25 μg/ml): G
Activity against Pseudomonas aeruginosa (growth observed) (Pseudomonas aeruginosa; 1 μg/ml): G
Activity against Pseudomonas aeruginosa (growth observed) (Pseudomonas aeruginosa; 2 μg/ml): G
Activity against Pseudomonas aeruginosa (growth observed) (Pseudomonas aeruginosa; 3 μg/ml): G
Activity against Pseudomonas aeruginosa (growth observed) (Pseudomonas aeruginosa; 4 μg/ml): G
Activity against Pseudomonas aeruginosa (growth observed) (Pseudomonas aeruginosa; 5 μg/ml): G
Activity against Pseudomonas aeruginosa (growth observed) (Pseudomonas aeruginosa; 6 μg/ml): G
Activity against Pseudomonas aeruginosa (growth observed) (Pseudomonas aeruginosa; 7 μg/ml): G
Activity against Pseudomonas aeruginosa (growth observed) (Pseudomonas aeruginosa; 8 μg/ml): G
Activity against Pseudomonas aeruginosa (growth observed) (Pseudomonas aeruginosa; 9 μg/ml): G
Activity against Pseudomonas aeruginosa (growth observed) (Pseudomonas aeruginosa; 10 μg/ml): G
Activity against Pseudomonas aeruginosa (growth observed) (Pseudomonas aeruginosa; 25 μg/ml): G
